# Tested on: 782815-120-R-J1-PDC complex spheroid viability
# Assay: Anticancer human tumor 782815-120-R-J1-PDC patient-derived colon adenocarcinoma cell line growth inhibition [RAS]
# Conditions: for viability, T/C: stronger effect = lower value
# How it was run: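 Tumour cells grown as complex spheroids with HUVEC endothelial cells and mesenchymal stem cells, treated with RAS pathway inhibitor combinations. Each agent spans half-log steps from near clinical Cmax, or 10 microM where Cmax is unknown.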
# [1] = curve of first compound, second compound 0.0316 µM
# [2] = curve of first compound, second compound 0.1 µM
# [3] = curve of first compound, second compound 0.316 µM
# [4] = curve of first compound, second compound 1 µM
# [5] = curve of first compound, second compound 3.16 µM
# [6] = curve of first compound, second compound 10 µM
# [7] = second compound 0.0316 µM, first compound 0.0316 µM
# [8] = second compound 0.0316 µM, first compound 0.1 µM
# [9] = second compound 0.0316 µM, first compound 0.316 µM
# [10] = second compound 0.0316 µM, first compound 1 µM
# [11] = second compound 0.0316 µM, first compound 3.16 µM
# [12] = second compound 0.0316 µM, first compound 10 µM
# [13] = second compound 0.1 µM, first compound 0.0316 µM
# [14] = second compound 0.1 µM, first compound 0.1 µM
# [15] = second compound 0.1 µM, first compound 0.316 µM
# [16] = second compound 0.1 µM, first compound 1 µM
# [17] = second compound 0.1 µM, first compound 3.16 µM
# [18] = second compound 0.1 µM, first compound 10 µM
# [19] = second compound 0.316 µM, first compound 0.0316 µM
# [20] = second compound 0.316 µM, first compound 0.1 µM
# [21] = second compound 0.316 µM, first compound 0.316 µM
# [22] = second compound 0.316 µM, first compound 1 µM
# [23] = second compound 0.316 µM, first compound 3.16 µM
# [24] = second compound 0.316 µM, first compound 10 µM
# [25] = second compound 1 µM, first compound 0.0316 µM
# [26] = second compound 1 µM, first compound 0.1 µM
# [27] = second compound 1 µM, first compound 0.316 µM
# [28] = second compound 1 µM, first compound 1 µM
# [29] = second compound 1 µM, first compound 3.16 µM
# [30] = second compound 1 µM, first compound 10 µM
# [31] = second compound 3.16 µM, first compound 0.0316 µM
# [32] = second compound 3.16 µM, first compound 0.1 µM
# [33] = second compound 3.16 µM, first compound 0.316 µM
# [34] = second compound 3.16 µM, first compound 1 µM
# [35] = second compound 3.16 µM, first compound 3.16 µM
# [36] = second compound 3.16 µM, first compound 10 µM
# [37] = second compound 10 µM, first compound 0.0316 µM
# [38] = second compound 10 µM, first compound 0.1 µM
# [39] = second compound 10 µM, first compound 0.316 µM
# [40] = second compound 10 µM, first compound 1 µM
# [41] = second compound 10 µM, first compound 3.16 µM
# [42] = second compound 10 µM, first compound 10 µM
# 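Note: spheroids exposed to compounds for 7 days before reading.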
# 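Throughout, for viability, T/C: 100% = DMSO vehicle control viability.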
structure (smiles),measurement,setting,value
NC1c2ccccc2OC12CCN(c1cnc3c(N4CCCc5ncccc54)n[nH]c3n1)CC2 (stereo not given) + C#Cc1c(F)ccc2cc(O)cc(-c3ncc4c(N5CC6CCC(C5)N6)nc(OCC56CCCN5CC(F)C6)nc4c3F)c12,IC50,[1],> 10 µM
same,IC50,[2],> 10 µM
same,IC50,[3],> 10 µM
same,IC50,[4],> 10 µM
same,IC50,[5],> 10 µM
same,IC50,[6],> 10 µM
same,"viability, T/C",[7],110%
same,"viability, T/C",[8],104%
same,"viability, T/C",[9],111%
same,"viability, T/C",[10],95.3%
same,"viability, T/C",[11],99.8%
same,"viability, T/C",[12],84%
same,"viability, T/C",[13],103%
same,"viability, T/C",[14],96%
same,"viability, T/C",[15],110%
same,"viability, T/C",[16],106%
same,"viability, T/C",[17],94.4%
same,"viability, T/C",[18],76.6%
same,"viability, T/C",[19],99.6%
same,"viability, T/C",[20],105%
same,"viability, T/C",[21],103%
same,"viability, T/C",[22],106%
same,"viability, T/C",[23],96.7%
same,"viability, T/C",[24],90.4%
same,"viability, T/C",[25],109%
same,"viability, T/C",[26],102%
same,"viability, T/C",[27],110%
same,"viability, T/C",[28],106%
same,"viability, T/C",[29],105%
same,"viability, T/C",[30],83.7%
same,"viability, T/C",[31],102%
same,"viability, T/C",[32],97.1%
same,"viability, T/C",[33],102%
same,"viability, T/C",[34],98.9%
same,"viability, T/C",[35],99%
same,"viability, T/C",[36],96.7%
same,"viability, T/C",[37],101%
same,"viability, T/C",[38],101%
same,"viability, T/C",[39],115%
same,"viability, T/C",[40],100%
same,"viability, T/C",[41],94.7%
same,"viability, T/C",[42],80.4%
CC(=O)OC12COC1CC(O)C1(C)C(=O)C(O)C3=C(C)C(OC(=O)C(O)C(NC(=O)OC(C)(C)C)c4ccccc4)CC(O)(C(OC(=O)c4ccccc4)C21)C3(C)C (stereo not given) + C#Cc1c(F)ccc2cc(O)cc(-c3ncc4c(N5CC6CCC(C5)N6)nc(OCC56CCCN5CC(F)C6)nc4c3F)c12,IC50,[1],< 0.0316 µM
same,IC50,[2],< 0.0316 µM
same,IC50,[3],< 0.0316 µM
same,IC50,[4],< 0.0316 µM
same,IC50,[5],< 0.0316 µM
same,IC50,[6],< 0.0316 µM
same,"viability, T/C",[7],34.4%
same,"viability, T/C",[8],32.9%
same,"viability, T/C",[9],30.1%
same,"viability, T/C",[10],24.4%
same,"viability, T/C",[11],30.8%
same,"viability, T/C",[12],34.9%
same,"viability, T/C",[13],39.7%
same,"viability, T/C",[14],34.5%
same,"viability, T/C",[15],29.2%
same,"viability, T/C",[16],21.6%
same,"viability, T/C",[17],32.2%
same,"viability, T/C",[18],31%
same,"viability, T/C",[19],38.8%
same,"viability, T/C",[20],33.4%
same,"viability, T/C",[21],25.9%
same,"viability, T/C",[22],28.6%
same,"viability, T/C",[23],31.9%
same,"viability, T/C",[24],29.5%
same,"viability, T/C",[25],36.5%
same,"viability, T/C",[26],32.3%
same,"viability, T/C",[27],30.5%
same,"viability, T/C",[28],27.2%
same,"viability, T/C",[29],33.7%
same,"viability, T/C",[30],33.4%
same,"viability, T/C",[31],35.4%
same,"viability, T/C",[32],34.4%
same,"viability, T/C",[33],35.5%
same,"viability, T/C",[34],27.5%
same,"viability, T/C",[35],28.3%
same,"viability, T/C",[36],34.2%
same,"viability, T/C",[37],35.7%
same,"viability, T/C",[38],29.2%
same,"viability, T/C",[39],26.8%
same,"viability, T/C",[40],36%
same,"viability, T/C",[41],29.9%
same,"viability, T/C",[42],32.8%
CC(=O)OC12COC1CC(O)C1(C)C(=O)C(O)C3=C(C)C(OC(=O)C(O)C(NC(=O)OC(C)(C)C)c4ccccc4)CC(O)(C(OC(=O)c4ccccc4)C21)C3(C)C (stereo not given) + C=CC(=O)N1CCN(c2nc(OCC3CCCN3C)nc3c(F)c(-c4nc(N)cc(C)c4C(F)(F)F)c(Cl)cc23)C(C)C1,IC50,"curve of first compound, second compound 0.00316 µM",< 0.0316 µM
same,IC50,"curve of first compound, second compound 0.01 µM",< 0.0316 µM
same,IC50,[1],< 0.0316 µM
same,IC50,[2],< 0.0316 µM
same,IC50,[3],< 0.0316 µM
same,IC50,[4],< 0.0316 µM
same,"viability, T/C","second compound 0.00316 µM, first compound 0.0316 µM",33.6%
same,"viability, T/C","second compound 0.00316 µM, first compound 0.1 µM",31.1%
same,"viability, T/C","second compound 0.00316 µM, first compound 0.316 µM",25.6%
same,"viability, T/C","second compound 0.00316 µM, first compound 1 µM",23.6%
same,"viability, T/C","second compound 0.00316 µM, first compound 3.16 µM",28.3%
same,"viability, T/C","second compound 0.00316 µM, first compound 10 µM",33.2%
same,"viability, T/C","second compound 0.01 µM, first compound 0.0316 µM",34.1%
same,"viability, T/C","second compound 0.01 µM, first compound 0.1 µM",32%
same,"viability, T/C","second compound 0.01 µM, first compound 0.316 µM",25.7%
same,"viability, T/C","second compound 0.01 µM, first compound 1 µM",22.3%
same,"viability, T/C","second compound 0.01 µM, first compound 3.16 µM",25%
same,"viability, T/C","second compound 0.01 µM, first compound 10 µM",34.1%
same,"viability, T/C",[7],40%
same,"viability, T/C",[8],24.2%
same,"viability, T/C",[9],23.6%
same,"viability, T/C",[10],27.6%
same,"viability, T/C",[11],23.6%
same,"viability, T/C",[12],34.7%
same,"viability, T/C",[13],36.8%
same,"viability, T/C",[14],30.4%
same,"viability, T/C",[15],20.3%
same,"viability, T/C",[16],22.9%
same,"viability, T/C",[17],25%
same,"viability, T/C",[18],29.2%
same,"viability, T/C",[19],37.4%
same,"viability, T/C",[20],27.4%
same,"viability, T/C",[21],25%
same,"viability, T/C",[22],23.5%
same,"viability, T/C",[23],28.4%
same,"viability, T/C",[24],29.6%
same,"viability, T/C",[25],38.1%
same,"viability, T/C",[26],26.9%
same,"viability, T/C",[27],27.4%
same,"viability, T/C",[28],23.6%
same,"viability, T/C",[29],27.5%
same,"viability, T/C",[30],33.3%
CCC(CC)c1cc(NC2CCC(N)C2)n2nccc2n1 (stereo not given) + C#Cc1c(F)ccc2cc(O)cc(-c3ncc4c(N5CC6CCC(C5)N6)nc(OCC56CCCN5CC(F)C6)nc4c3F)c12,IC50,[1],2.5 µM
same,IC50,[2],2.63 µM
same,IC50,[3],2.82 µM
same,IC50,[4],2.39 µM
same,IC50,[5],2.56 µM
same,IC50,[6],2.36 µM
same,"viability, T/C",[7],93.3%
same,"viability, T/C",[8],90.7%
same,"viability, T/C",[9],99.4%
same,"viability, T/C",[10],100%
same,"viability, T/C",[11],38.2%
same,"viability, T/C",[12],1.67%
same,"viability, T/C",[13],99.2%
same,"viability, T/C",[14],103%
same,"viability, T/C",[15],96.9%
same,"viability, T/C",[16],104%
same,"viability, T/C",[17],40.3%
same,"viability, T/C",[18],1.65%
same,"viability, T/C",[19],105%
same,"viability, T/C",[20],109%
same,"viability, T/C",[21],103%
same,"viability, T/C",[22],111%
same,"viability, T/C",[23],43.7%
same,"viability, T/C",[24],2.09%
same,"viability, T/C",[25],96.3%
same,"viability, T/C",[26],90.1%
same,"viability, T/C",[27],101%
same,"viability, T/C",[28],105%
same,"viability, T/C",[29],34.4%
same,"viability, T/C",[30],1.52%
same,"viability, T/C",[31],104%
same,"viability, T/C",[32],95%
same,"viability, T/C",[33],91.2%
same,"viability, T/C",[34],99%
same,"viability, T/C",[35],39.3%
same,"viability, T/C",[36],1.84%
same,"viability, T/C",[37],106%
same,"viability, T/C",[38],90.6%
same,"viability, T/C",[39],92.2%
same,"viability, T/C",[40],103%
same,"viability, T/C",[41],33.7%
same,"viability, T/C",[42],1.27%
CCn1c(-c2cccnc2C(C)OC)c2c3cc(ccc31)N1CCOC(CC(NC(=O)C(C(C)C)N(C)C(=O)C3(F)CCN(C(=O)C#CC(C)(C)N(C)C)CC3)C(=O)N3CCCC(N3)C(=O)OCC(C)(C)C2)C1 (stereo not given),"viability, T/C",compound 0.000949 µM,95.4% [middle of 8 runs]
same,"viability, T/C",compound 0.003 µM,100% [middle of 8 runs]
same,"viability, T/C",compound 0.00949 µM,95.8% [middle of 8 runs]
same,"viability, T/C",compound 0.03 µM,98.5% [middle of 8 runs]
same,"viability, T/C",compound 0.0949 µM,96.5% [middle of 8 runs]
same,"viability, T/C",compound 0.3 µM,89.1% [middle of 8 runs]
same,IC50,"compound alone, run of 07/09/2024",> 0.3 µM
